# Columns and labels:
# GABAAR = details: read-out: Potentiation EC50; bulk phase concentration; cited from earlier work
# [1] = target: purified human α1β3γ2 GABAA receptor (Homo sapiens, UniProt P14867+P28472); assay type: binding
# purified α1β3γ2 GABAARs = purified α1β3γ2 GABAARs (Homo sapiens, UniProt P14867+P28472); assay type: binding; details: 3.5 μM [3H]azietomidate
# Partition coefficient = assay type: physicochemical; details: difference to alphaxalone
# [2] = target: human α1β3γ2 GABAA receptors (Homo sapiens, UniProt P14867+P28472); experiment: Modulation of [3H]muscimol binding to GABAA receptor membranes from HEK293 cells; details: 2 nM [3H]muscimol
# Sequence of human α1β3γ2 GABAA receptors (P14867 28-456): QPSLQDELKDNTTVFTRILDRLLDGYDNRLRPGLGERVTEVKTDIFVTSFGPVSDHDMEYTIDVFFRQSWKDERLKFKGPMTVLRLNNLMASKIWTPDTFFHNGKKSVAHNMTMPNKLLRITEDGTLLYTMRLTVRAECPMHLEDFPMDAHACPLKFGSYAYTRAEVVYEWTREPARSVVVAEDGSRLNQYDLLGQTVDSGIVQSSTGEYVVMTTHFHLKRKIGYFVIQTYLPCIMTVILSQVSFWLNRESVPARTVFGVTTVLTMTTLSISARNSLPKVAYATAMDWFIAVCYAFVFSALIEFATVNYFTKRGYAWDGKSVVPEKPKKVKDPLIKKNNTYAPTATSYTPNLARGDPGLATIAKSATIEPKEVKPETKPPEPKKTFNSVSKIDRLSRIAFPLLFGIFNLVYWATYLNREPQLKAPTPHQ
# Sequence of human α1β3γ2 GABAA receptors (P28472 26-473): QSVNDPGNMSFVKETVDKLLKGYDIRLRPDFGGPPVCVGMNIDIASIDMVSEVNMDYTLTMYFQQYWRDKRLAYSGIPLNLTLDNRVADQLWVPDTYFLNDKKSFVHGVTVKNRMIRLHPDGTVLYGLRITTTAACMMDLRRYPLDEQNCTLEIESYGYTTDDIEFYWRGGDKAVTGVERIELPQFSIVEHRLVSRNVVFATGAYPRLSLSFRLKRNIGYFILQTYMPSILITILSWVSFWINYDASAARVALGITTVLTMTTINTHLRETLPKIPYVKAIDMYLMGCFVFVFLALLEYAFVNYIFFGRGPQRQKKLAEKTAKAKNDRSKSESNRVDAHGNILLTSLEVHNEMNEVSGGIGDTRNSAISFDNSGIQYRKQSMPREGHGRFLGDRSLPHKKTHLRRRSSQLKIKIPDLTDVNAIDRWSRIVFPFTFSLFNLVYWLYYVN
# Sequence of human α1β3γ2 GABAA receptors (P18507 40-475 partner): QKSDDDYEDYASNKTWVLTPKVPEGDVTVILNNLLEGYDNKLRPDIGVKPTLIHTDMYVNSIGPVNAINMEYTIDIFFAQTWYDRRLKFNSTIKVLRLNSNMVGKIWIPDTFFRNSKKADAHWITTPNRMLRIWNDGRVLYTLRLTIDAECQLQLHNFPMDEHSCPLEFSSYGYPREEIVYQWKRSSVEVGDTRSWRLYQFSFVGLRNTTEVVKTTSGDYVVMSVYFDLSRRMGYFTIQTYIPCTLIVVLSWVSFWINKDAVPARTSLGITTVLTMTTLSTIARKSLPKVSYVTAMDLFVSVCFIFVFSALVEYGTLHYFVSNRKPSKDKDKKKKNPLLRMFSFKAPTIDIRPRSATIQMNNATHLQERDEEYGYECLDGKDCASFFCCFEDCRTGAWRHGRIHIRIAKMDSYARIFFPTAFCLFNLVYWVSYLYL
# Sequence of purified human α1β3γ2 GABAA receptor (P14867 28-456): as the sequence (P14867 28-456) above
# Sequence of purified human α1β3γ2 GABAA receptor (P28472 26-473): as the sequence (P28472 26-473) above
# Sequence of purified human α1β3γ2 GABAA receptor (P18507 40-475 partner): as the sequence (P18507 40-475 partner) above
# Sequence of purified α1β3γ2 GABAARs (P14867 28-456): as the sequence (P14867 28-456) above
# Sequence of purified α1β3γ2 GABAARs (P28472 26-473): as the sequence (P28472 26-473) above
# Sequence of purified α1β3γ2 GABAARs (P18507 40-475 partner): as the sequence (P18507 40-475 partner) above
smiles,measurement,setting,value
"CC(=O)[C@H]1CC[C@H]2[C@@H]3CC[C@H]4C[C@H](O)CC[C@]4(C)[C@H]3C(=O)C[C@]12C [alphaxalone, Alphaxalone]",EC50,GABAAR,600 nM
"CC(c1ccccc1)n1cncc1C(=O)OCCC1(C)N=N1 (stereo not drawn) [[^3H]azietomidate, reference compound]",Pharmacologically specific subunit photolabeling (inhibitable by etomidate),[1]; [3H]azietomidate subunit photolabeling,80%
same,α-subunits photolabeled,purified α1β3γ2 GABAARs,10%
"CC(=O)[C@H]1CC[C@H]2[C@@H]3CC[C@H]4C[C@H](O)CC[C@]4(C)[C@H]3[C@@H](OC(=O)c3c(F)c(F)c(N=[N+]=[N-])c(F)c3F)C[C@]12C [F4N3Bzox-AP, 11β-(4-Azido-2,3,5,6-tetrafluorobenzoyloxy)-3α-hydroxy-5α-pregnane-20-one]",Higher lipophilicity as compared to alphaxalone,Partition coefficient,ca. 1.5 log P units
same,Efficacy of modulation of [3H]muscimol binding,[2],228 ± 4%
same,Hill coefficient of enhancement of [3H]muscimol binding,[2],1.9 ± 0.1
"CC(=O)[C@H]1CC[C@H]2[C@@H]3CC[C@H]4C[C@H](O)CC[C@]4(C)[C@H]3C3(C[C@]12C)N=N3 [11-aziAP, 11-Aziallopregnanolone]","Enhancement of photolabeling by both probes ([3H]azietomidate, [3H]R-mTFD-MPAB)",[1]; 0.3 and 1 μM,to the same extent as GABA or alphaxalone
same,Efficacy of modulation of [3H]muscimol binding,[2],227 ± 2%
same,Hill coefficient of enhancement of [3H]muscimol binding,[2],1.1 ± 0.2

# From paper PMC6071317 (European journal of medicinal chemistry, 2017)
